Here are results for 13 compounds from patent US20250296940A1, “ANNULATED 2-AMINO-3-CYANO THIOPHENES AND DERIVATIVES FOR THE TREATMENT OF CANCER” (Boehringer Ingelheim Int'l GmbH Corp., priority 2021, published 2025).

A short description of one data set: Caco-2 assay. As to conditions: human, 10 μM compound; for Papp A→B at 90 min, 10 μM: apical to basolateral, pH 7.4, read-out: Caco PappAB; for efflux ratio at 90 min, 10 μM: efflux ratio PappBA/PappAB, pH 7.4, read-out: Caco ER. Type of data set: in vitro ADME. From the text:
The assay provides information on the potential of a compound to pass the cell membrane, on the extent of oral absorption as well as on whether the compound is actively transported by uptake and/or efflux transporters. Permeability measurements across polarized, confluent Caco-2 cell monolayers grown on permeable filter supports (Corning, catalog #3391) are used. […] The receiver and donor compartments contain 0.25% bovine serum albumine (BSA) in assay buffer. Passive diffusion and/or active transport of compounds across the monolayer is measured in both apical to basolateral (a-b) and basolateral to apical (b-a) direction. a-b permeability (PappAB) represents drug absorption from the intestine into the blood and b-a permeability (PappBA) drug secretion from the blood back into the intestine via both passive permeability as well as active transport mechanisms mediated by efflux and uptake transporters that are expressed on the Caco-2 cells. After a pre-incubation of 25-30 min at 37° C., at predefined time points (0, 30, 60 and 90 min), samples were taken from the receiver and donor compartment, respectively. Concentrations of test compounds in samples were measured by HPLC/MS/MS, samples from the donor compartment were diluted 1:50 (v:v) with assay buffer, samples from receiver compartment were measured without dilution.
Apparent permeabilities in a-b (PappAB) and b-a (PappBA) directions are calculated according to the formula:
[formula] • Vrec [mL]: buffer volume in receiver compartment • Cdon [μmol/mL]: concentration of test compound in donor compartment at t=0 • ΔCrec: difference between concentrations of test compound in receiver compartment at start and end of incubation time • Δt: Incubation time • Vrec·ΔCrec/Δt [μmol/min]: Amount of compound transferred to receiver compartment per time • A [cm^2]: filter surface
Caco-2 efflux ratios (ER) are calculated as the ratio of PappBA/PappAB.
(§1) Data obtained with the disclosed assay for a selection of compounds (I) according to the invention: […]

The target of the next data set is T1, CYP3A4 (Homo sapiens, UniProt P08684).
T1 construct: assayed in human liver microsomes (0.02 mg/mL) with midazolam (15 μM) as a substrate; from tissue; host or cells: human liver microsomes
Kind of data set: Mechanism based inhibition of CYP3A4 assay (MBI 3A4). Type of data set: in vitro ADME. As to conditions: human liver microsomes, 25 uM compound; hydroxy-midazolam formation after 30 min preincubation relative to 0 min. How it is done: The time dependent inhibition towards CYP3A4 is assayed in human liver microsomes (0.02 mg/mL) with midazolam (15 μM) as a substrate. The test compounds and water control (wells w/o test compound) are preincubated in presence of NADPH (1 mM) with human liver microsomes (0.2 mg/mL) at a concentration of 25 uM for 0 min and 30 min. After preincubation, the incubate is diluted 1:10 and the substrate midazolam is added for the main incubation (15 min). The main incubation is quenched with acetonitrile and the formation of hydroxy-midazolam is quantified via LC/MS-MS. The formation of hydroxy-midazolam from the 30 min preincubation relative to the formation from the 0 min preincubation is used as a readout. Values of less than 100% mean that the substrate midazolam is metabolized to a lower extent upon 30 min preincubation compared to 0 min preincubation. In general low effects upon 30 min preincubation are desired (corresponding to values close to 100%/not different to the values determined with water control).
as §1
(Liver microsomes are vesicles of endoplasmic reticulum, rich in cytochrome P450 enzymes.)

The test system of data set [1] is NCI-H2122 cells (NSCLC, G12C). Kind of data set: NCI-H2122 CTG proliferation assay (120 h). Type of data set: cell-based. To be noted: Homo sapiens, NCI-H2122, CellTiter-Glo. The method, then:
The CTG assay is designed to measure quantitatively the proliferation of NCI-H2122 cells (ATCC CRL-5985), using the CellTiter Glow Assay Kit (Promega G7571). Cells are grown in RPMI medium (ATCC) supplemented with Fetal Calf Serum (Life Technologies, Gibco BRL, Cat. No. 10270-106). On “day 0” 200 NCI-H2122 cells are seeded in 60 μL RPMI ATCC+10% FCS+ Penstrep in a black 384-well plate, flat and clear bottom (Greiner, PNr. 781091). Cells are then incubated in the plates at 37° C. in a CO2 incubator overnight. On day 1, compounds (10 mM stock in DMSO) are added with the ECHO acoustic liquid handler system (Beckman Coulter), including DMSO controls. Plates are incubated for 120 h, and cell viability is measured using CellTiter-Glo luminescent cell viability reagent (Promega product code G7570). Viability (stated as percent of control) is defined as relative luminescence units RLU of each well divided by the RLU of cells in DMSO controls. IC50 values are determined from viability measurements by non-linear regression using a four parameter model.
IC50 values of representative compounds according to the invention measured with these assays in the indicated cell lines: […]

T1 sequence (P08684 whole entry): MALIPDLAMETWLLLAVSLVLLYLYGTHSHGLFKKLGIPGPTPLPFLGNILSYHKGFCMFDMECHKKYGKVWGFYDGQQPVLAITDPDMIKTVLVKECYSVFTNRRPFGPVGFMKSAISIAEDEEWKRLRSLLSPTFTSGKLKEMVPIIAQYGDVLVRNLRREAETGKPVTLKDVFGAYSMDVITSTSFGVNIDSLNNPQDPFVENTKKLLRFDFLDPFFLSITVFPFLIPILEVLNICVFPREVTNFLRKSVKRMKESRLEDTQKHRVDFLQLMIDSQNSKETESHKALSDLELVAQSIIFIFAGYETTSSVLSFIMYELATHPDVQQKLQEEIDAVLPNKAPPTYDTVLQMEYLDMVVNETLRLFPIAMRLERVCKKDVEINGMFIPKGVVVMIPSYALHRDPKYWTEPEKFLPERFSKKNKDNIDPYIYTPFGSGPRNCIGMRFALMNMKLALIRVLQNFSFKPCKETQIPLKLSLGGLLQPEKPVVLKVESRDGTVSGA

For `C=C(F)C(=O)N1[C@@H](C)CN(c2cc(O[C@@H](C)[C@@H]3CCCN3C)nc(-c3onc4c3CCC[C@@]43CCCc4sc(N)c(C#N)c43)n2)C[C@@H]1C` [Ia-1], in “Caco-2 assay”, the Papp A→B at 90 min, 10 μM is 44 nm/s and the efflux ratio at 90 min, 10 μM came to 3.6. Further, the “MBI 3A4” value at CYP3A4 is 61%.
In general, IC50 refers to the concentration that gives 50% inhibition. A higher IC50 goes with a need for much substance. Consider `C=CC(=O)N1[C@@H](C)CN(c2cc(O[C@@H](C)[C@@H]3CCCN3C)nc(-c3onc4c3CCC[C@@]43CCCc4sc(N)c(C#N)c43)n2)C[C@@H]1C` [Ia-2], for which, in the data set “Caco-2 assay”, the Papp A→B at 90 min, 10 μM was 29 nm/s and the efflux ratio at 90 min, 10 μM stood at 8.6. The IC50 in data set [1] came out at 0.002 µM. The “MBI 3A4” value at CYP3A4 was 62%.
Take `C=C(F)C(=O)N1[C@@H](C)CN(c2cc(-c3onc4c3CCC[C@@]43CCCc4sc(N)c(C#N)c43)nc(O[C@@H](C)[C@@H]3CCCN3C)n2)C[C@@H]1C` [Ia-3]: half-maximal inhibition in data set [1] (IC50) was put at 0.096 µM.
Take `C=CC(=O)N1[C@@H](C)CN(c2cc(-c3onc4c3CCC[C@@]43CCCc4sc(N)c(C#N)c43)nc(O[C@@H](C)[C@@H]3CCCN3C)n2)C[C@@H]1C` [Ia-4]: in the data set “Caco-2 assay”, the Papp A→B at 90 min, 10 μM is 13 nm/s and the efflux ratio at 90 min, 10 μM came out at 30.7. For the same compound, in data set [1], half-maximal inhibition (IC50) required 0.004 µM.
As to `C[C@H](Oc1cc(N2C[C@H](C)N(C(=O)/C=C/CF)[C@@H](C)C2)nc(-c2noc3c2CCC[C@@]32CCCc3sc(N)c(C#N)c32)n1)[C@@H]1CCCN1C` [Ib-1], in the data set “Caco-2 assay”, the Papp A→B at 90 min, 10 μM came to 8 nm/s and the efflux ratio at 90 min, 10 μM was 28.6. Further, half-maximal inhibition in data set [1] (IC50) was put at 0.029 µM.
As to `C=CC(=O)N1CCN(c2cc(O[C@@H](C)[C@@H]3CCCN3C)nc(-c3noc4c3CCC[C@@]43CCCc4sc(N)c(C#N)c43)n2)CC12CC2` [Ib-2], the efflux ratio at 90 min, 10 μM in the data set “Caco-2 assay” was determined as 18.2. The compound also displayed an IC50 in data set [1] of 0.019 µM.
In the case of `C=CC(=O)N1[C@@H](C)CN(c2cc(O[C@@H](C)[C@@H]3CCCN3C)nc(-c3noc4c3CCC[C@@]43CCCc4sc(N)c(C#N)c43)n2)C[C@@H]1C` [Ib-3], in “Caco-2 assay”, the Papp A→B at 90 min, 10 μM stood at 63 nm/s and the efflux ratio at 90 min, 10 μM was 3. Moreover, the “MBI 3A4” value on CYP3A4 came to 65%.
`C=CC(=O)N1[C@@H](C)CN(c2cc(-c3noc4c3CCC[C@@]43CCCc4sc(N)c(C#N)c43)nc(O[C@@H](C)[C@@H]3CCCN3C)n2)C[C@@H]1C` [Ib-4]: in the data set “Caco-2 assay”, the Papp A→B at 90 min, 10 μM came out at 31 nm/s and the efflux ratio at 90 min, 10 μM stood at 12.3. Also, the “MBI 3A4” value at CYP3A4 was found to be 78%.
Take `C=C(F)C(=O)N1[C@@H](C)CN(c2cc(O[C@@H](C)[C@@H]3CCCN3C)nc(-c3noc4c3CCC[C@@]43CCCc4sc(N)c(C#N)c43)n2)C[C@@H]1C` [Ib-5]: in the data set “Caco-2 assay”, the Papp A→B at 90 min, 10 μM amounted to 110 nm/s and the efflux ratio at 90 min, 10 μM stood at 1.1. Besides, half-maximal inhibition in data set [1] (IC50) required 0.021 µM. Further, on CYP3A4, the “MBI 3A4” value is reported as 69%.
The corresponding values for `C=C(F)C(=O)N1[C@@H](C)CN(c2cc(-c3noc4c3CCC[C@@]43CCCc4sc(N)c(C#N)c43)nc(O[C@@H](C)[C@@H]3CCCN3C)n2)C[C@@H]1C` [Ib-6] are 92 nm/s, 1.7, 0.035 µM and 64%.
The corresponding values for `C[C@H](Oc1nc(-c2noc3c2CCC[C@@]32CCCc3sc(N)c(C#N)c32)cc(N2C[C@H](C)N(C(=O)/C=C/CF)[C@@H](C)C2)n1)[C@@H]1CCCN1C` [Ib-7] are 24 nm/s, 10.4, 0.19 µM and 62%.
`C[C@H](Oc1nc(-c2noc3c2CCC[C@@]32CCCc3sc(N)c(C#N)c32)cc(N2C[C@H](C)N(C(=O)/C=C/c3cccnc3)[C@@H](C)C2)n1)[C@@H]1CCCN1C` [Ib-8]: the IC50 in data set [1] is 0.999 µM.
As to `COC/C=C/C(=O)N1[C@@H](C)CN(c2cc(-c3noc4c3CCC[C@@]43CCCc4sc(N)c(C#N)c43)nc(O[C@@H](C)[C@@H]3CCCN3C)n2)C[C@@H]1C` [Ib-9], in the data set “Caco-2 assay”, the Papp A→B at 90 min, 10 μM was 24 nm/s and the efflux ratio at 90 min, 10 μM was found to be 7.5. The compound also came in with an IC50 in data set [1] of 2.25 µM. Also, the “MBI 3A4” value on CYP3A4 is 68%.
